# According to ChEMBL document CHEMBL1121678, “Antitumor agents. 44. Bis(helenalinyl) esters and related derivatives as novel potent antileukemic agents” (1981):
# Assays:
# Format in all cases: functional
# Mus musculus [1] = assay: In vivo antileukemic activity against P-388 lymphocytic leukemia in BDF1 male mice at 60 mg/kg/day intraperitoneal dose expressed as T/C
# Mus musculus [2] = assay: Antileukemic activity of compound against the P-388 lymphocytic leukemic BDF1 male mice at 15(mg/kg)/day, administered intraperitoneally; 11.0/9.66 (Treated/control)
# Mus musculus [3] = assay: Antileukemic activity of compound against the P-388 lymphocytic leukemic BDF1 male mice at 25(mg/kg)/day, administered intraperitoneally; 13.3/9.66 (Treated/control)
# Mus musculus [4] = assay: Antileukemic activity of compound against the P-388 lymphocytic leukemic BDF1 male mice at 15(mg/kg)/day, administered intraperitoneally; 11.4/9.66 (Treated/control)
# Mus musculus [5] = assay: In vivo antileukemic activity against P-388 lymphocytic leukemia in BDF1 male mice at 25(mg/kg)/day intraperitoneal dose expressed as T/C
# Mus musculus [6] = assay: In vivo antileukemic activity against P-388 lymphocytic leukemia in BDF1 male mice at 15(mg/kg)/day intraperitoneal dose expressed as T/C
# Mus musculus [7] = assay: In vivo antileukemic activity against P-388 lymphocytic leukemia in BDF1 male mice at 8(mg/kg)/day intraperitoneal dose expressed as T/C
# Mus musculus [8] = assay: Antileukemic activity of compound against the P-388 lymphocytic leukemic BDF1 male mice at 8(mg/kg)/day, administered intraperitoneally; […]/[…] (Treated/control)
# Mus musculus [9] = assay: Antileukemic activity of compound against the P-388 lymphocytic leukemic BDF1 male mice at 0.6(mg/kg)/day, administered intraperitoneally; 11.6/9.66 (Treated/control)
# Mus musculus [10] = assay: Antileukemic activity of compound against the P-388 lymphocytic leukemic BDF1 male mice at 60 mg/kg/day, administered intraperitoneally; 3.0/9.66 (Treated/control); details: route intraperitoneal
# Mus musculus [11] = assay: In vivo antileukemic activity against P-388 Lymphocytic Leukemia in BDF1 male mice at 15(mg/kg)/day intraperitoneal dose expressed as T/C
# Mus musculus [12] = assay: Antileukemic activity of compound against the P-388 lymphocytic leukemic BDF1 male mice at 25(mg/kg)/day, administered intraperitoneally; 12.3/9.66 (Treated/control)
# Mus musculus [13] = assay: In vivo antileukemic activity against P-388 Lymphocytic Leukemia in BDF1 male mice at 60 mg/kg/day intraperitoneal dose expressed as T/C
# Mus musculus [14] = assay: Antileukemic activity of compound against the P-388 lymphocytic leukemic BDF1 male mice at 8(mg/kg)/day, administered intraperitoneally; 15.7/9.66 (Treated/control)
# Mus musculus [15] = assay: Antileukemic activity of compound against the P-388 lymphocytic leukemic BDF1 male mice at 3(mg/kg)/day, administered intraperitoneally; 12.9/9.66 (Treated/control)
# Mus musculus [16] = assay: In vivo antileukemic activity against P-388 lymphocytic leukemia in BDF1 male mice at 3(mg/kg)/day intraperitoneal dose expressed as T/C
# Mus musculus [17] = assay: Antileukemic activity of compound against the P-388 lymphocytic leukemic BDF1 male mice at 15(mg/kg)/day, administered intraperitoneally; 11.9/9.66 (Treated/control)
# Mus musculus [18] = assay: In vivo antileukemic activity against P-388 Lymphocytic Leukemia in BDF1 male mice at 25(mg/kg)/day intraperitoneal dose expressed as T/C
# Mus musculus [19] = assay: Antileukemic activity of compound against the P-388 lymphocytic leukemic BDF1 male mice at 0.6(mg/kg)/day, administered intraperitoneally; 11/9.66 (Treated/control)
# Mus musculus [20] = assay: Antileukemic activity of compound against the P-388 lymphocytic leukemic BDF1 male mice at 60 mg/kg/day, administered intraperitoneally; 5.8/9.66 (Treated/control); details: route intraperitoneal
# Mus musculus [21] = assay: Antileukemic activity of compound against the P-388 lymphocytic leukemic BDF1 male mice at 15(mg/kg)/day, administered intraperitoneally; 25.2/9.66 (Treated/control)
# Mus musculus [22] = assay: In vivo antileukemic activity against P-388 lymphocytic leukemia in BDF1 male mice at 30(mg/kg)/day intraperitoneal dose expressed as T/C
# Mus musculus [23] = assay: Antileukemic activity of compound against the P-388 lymphocytic leukemic BDF1 male mice at 8(mg/kg)/day, administered intraperitoneally; 13.8/9.66 (Treated/control)
# Mus musculus [24] = assay: Antileukemic activity of compound against the P-388 lymphocytic leukemic BDF1 male mice at 3(mg/kg)/day, administered intraperitoneally; 13.8/9.66 (Treated/control)
# Mus musculus [25] = assay: Antileukemic activity of compound against the P-388 lymphocytic leukemic BDF1 male mice at 30(mg/kg)/day, administered intraperitoneally; 16.2/9.66 (Treated/control)
smiles,measurement,setting,value
C=C1C(=O)O[C@@H]2C[C@@H](C)[C@@H]3CCC(=O)[C@@]3(C)[C@@H](OC(=O)CC(=O)OCC)[C@H]12,T/C,Mus musculus [1],114%
same,Average survival (days),Mus musculus [2],11
C[C@@H]1C[C@H]2OC(=O)[C@@H](C)[C@H]2[C@H](O)[C@]2(C)C(=O)C=C[C@@H]12,Average survival (days),Mus musculus [3],13.3
same,Average survival (days),Mus musculus [4],11.4
same,T/C,Mus musculus [5],138%
same,T/C,Mus musculus [6],118%
same,T/C,Mus musculus [7],111%
same,Average survival (days),Mus musculus [8],10.7
CCOC(=O)CCC(=O)OCC [SUCCINIC ACID DIETHYL ESTER],T/C,Mus musculus [1],120%
same,Average survival (days),Mus musculus [9],11.6
C=C1C(=O)O[C@@H]2C[C@@H](C)[C@@H]3C=CC(=O)[C@@]3(C)[C@@H](O)[C@H]12 [HELENALIN],Average survival (days),Mus musculus [10],3
same,T/C,Mus musculus [11],123%
same,T/C,Mus musculus [7],162%
same,Average survival (days),Mus musculus [12],12.3
same,T/C,Mus musculus [13],31%
same,Average survival (days),Mus musculus [14],15.7
same,Average survival (days),Mus musculus [15],12.9
same,T/C,Mus musculus [16],134%
same,Average survival (days),Mus musculus [17],11.9
same,T/C,Mus musculus [18],127%
O=C(O)CCC(=O)O [SUCCINIC ACID],T/C,Mus musculus [1],111%
CCOC(=O)CC(=O)OCC [MALONIC ACID DIETHYL ESTER],T/C,Mus musculus [1],114%
same,Average survival (days),Mus musculus [19],11
C=C1C(=O)O[C@@H]2C[C@@H](C)[C@@H]3C=CC(=O)[C@@]3(C)[C@@H](OC(=O)CC(=O)O[C@H]3[C@@H]4C(=C)C(=O)O[C@@H]4C[C@@H](C)[C@@H]4C=CC(=O)[C@]43C)[C@H]12,T/C,Mus musculus [1],60%
same,Average survival (days),Mus musculus [20],5.8
same,Average survival (days),Mus musculus [21],25.2
same,T/C,Mus musculus [6],261%
same,T/C,Mus musculus [7],143%
same,T/C,Mus musculus [22],168%
same,Average survival (days),Mus musculus [23],13.8
same,Average survival (days),Mus musculus [24],13.8
same,Average survival (days),Mus musculus [25],16.2
same,T/C,Mus musculus [16],143%
